Measurements as given in patent US7045532B2 (Millennium Pharmaceuticals, Inc., priority 1999, dated 2006).

These molecules were tested against T1, ACE-2 (Homo sapiens, UniProt Q9BYF1) (assay: ACE-2 Competitive Substrate Assay (ACS Assay)). Conditions: Ki class per key; compounds tested in 5% DMSO, 12 compound concentrations, 25° C.; Ki=Kiapp/(1+[S]/Km); read-out: Human ACE-2 Activity.
T1 construct: a stop codon inserted after the serine immediately preceding the transmembrane domain; made in house; host or cells: CHO K1 cells (transient transfection, purified from conditioned medium)
Type: biochemical

T1 sequence (Q9BYF1 18-740 limits assumed): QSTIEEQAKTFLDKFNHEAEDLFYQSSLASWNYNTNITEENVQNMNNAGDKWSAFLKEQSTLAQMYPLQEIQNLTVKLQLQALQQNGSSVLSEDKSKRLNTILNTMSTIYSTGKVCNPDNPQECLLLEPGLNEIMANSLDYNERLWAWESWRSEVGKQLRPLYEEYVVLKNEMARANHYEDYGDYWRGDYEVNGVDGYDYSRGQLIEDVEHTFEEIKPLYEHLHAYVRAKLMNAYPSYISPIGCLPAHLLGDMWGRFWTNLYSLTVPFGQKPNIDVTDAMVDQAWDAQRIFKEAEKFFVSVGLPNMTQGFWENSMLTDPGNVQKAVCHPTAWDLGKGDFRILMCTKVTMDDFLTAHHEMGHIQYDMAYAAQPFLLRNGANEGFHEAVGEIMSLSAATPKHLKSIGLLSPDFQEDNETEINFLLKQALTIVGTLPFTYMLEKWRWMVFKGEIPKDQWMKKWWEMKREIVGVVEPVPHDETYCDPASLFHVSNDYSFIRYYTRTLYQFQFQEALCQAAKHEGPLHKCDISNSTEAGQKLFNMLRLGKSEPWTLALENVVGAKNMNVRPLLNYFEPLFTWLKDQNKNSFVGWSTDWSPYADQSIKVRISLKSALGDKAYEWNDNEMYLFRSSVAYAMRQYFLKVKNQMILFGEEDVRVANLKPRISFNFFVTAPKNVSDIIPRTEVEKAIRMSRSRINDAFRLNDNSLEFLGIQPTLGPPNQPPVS

| Ki [µM] | SMILES |
| --- | --- |
| < 0.1 | CC(C)C[C@H](N[C@@H](CN1C(=O)CN(Cc2cc(Cl)cc(Cl)c2)C1=O)C(=O)O)C(=O)O [PX, 2-[1-Carboxy-2-[3-(3,5-dichloro-benzyl)-2,5-dioxo-imidazolidin-1-yl]-ethylamino]-4-methyl-pentanoic acid] |
| < 0.1 | CC(C)C[C@H](N[C@@H](Cc1ccc(-c2ccccn2)cc1)C(=O)O)C(=O)O [PI, (S,S)-2-[1-Carboxy-2-(4-pyridin-2-yl-phenyl)-ethylamino]-4-methyl-pentanoic acid] |
| < 0.1 | CC(C)C[C@H](N[C@@H](Cc1ccc(C(=O)OC(C)(C)C)cc1)C(=O)O)C(=O)O [PU, (S,S) 4-[2-Carboxy-2-(1-carboxy-3-methyl-butylamino)-ethyl]-benzoic acid tert-butyl ester] |
| > 0.5 | CC(C)C[C@H](N[C@@H](Cc1cccc(Cc2ccccc2)c1)C(=O)O)C(=O)O [PB, (S,S)-2-[2-(3-Benzyl-phenyl)-1-carboxy-ethylamino]-4-methyl-pentanoic acid] |
| 0.1 to 0.5 | CC(C)C[C@H](N[C@@H](Cc1ccc(-c2ccncc2)cc1)C(=O)O)C(=O)O [PK, (S,S)-2-[1-Carboxy-2-(4-pyridin-4-yl-phenyl)-ethylamino]-4-methyl-pentanoic acid] |
| < 0.1 | CC(C)C[C@H](N[C@@H](Cc1ccc(OCc2csc3ccccc23)cc1)C(=O)O)C(=O)O [QX, 2-{2-[4-(Benzo[b]thiophen3-ylmethoxy)-phenyl]-1-carboxy-ethylamino]-4-methyl-pentanoic acid] |

Same assay, conditions: Ki class; compounds tested in 5% DMSO, 12 compound concentrations, Ki=Kiapp/(1+[S]/Km); read-out: Human ACE-2 Activity

| Ki [µM] | SMILES |
| --- | --- |
| > 0.5 | CC(C)CC(N[C@@H](Cc1cncn1Cc1ccccc1CS(=O)(=O)c1ccccc1)C(=O)O)C(=O)O (single isomer, unassigned) [IA, 2-[2-[3-(2-Benzenesulfonylmethyl-benzyl)-3H-imidazol-4-yl]-1-carboxy-ethylamino]-4-methyl-pentanoic acid] |
| > 0.5 | COc1cccc(Cn2cncc2C[C@H](NC(CC(C)C)C(=O)O)C(=O)O)c1OC (single isomer, unassigned) [IP, 2-[1-Carboxy-2-[3-(2,3-dimethoxy-benzyl)-3H-imidazol-4-yl]-ethylamino)4-methyl-pentanoic acid] |
| 0.1 to 0.5 | CC(C)C[C@H](N[C@@H](Cn1ccn([C@@H](C)c2ccccc2)c1=O)C(=O)O)C(=O)O [LH, (S,S)-2-{1-Carboxy-2-[2-oxo-3-(1-phenyl-ethyl)-2,3-dihydro-imidazol-1-yl]-ethylamino}-4-methyl-pentanoic acid] |
| < 0.1 | CC(C)C[C@H](N[C@@H](Cn1ccn(Cc2cc(F)ccc2F)c1=O)C(=O)O)C(=O)O [OW, 2-[1-Carboxy-2-[3-(2,5-difluoro-benzyl)-2-oxo-2,3-dihydro-imidazol-1-yl]-ethylamino]-4-methyl-pentanoic acid] |
| > 0.5 | Cc1c(Cn2cncc2C[C@H](NC(CC(C)C)C(=O)O)C(=O)O)cccc1-c1ccccc1 (single isomer, unassigned) [IR, 2-[1-Carboxy-2-[3-(2-methyl-biphenyl-3-ylmethyl)-3H-imidazol-4-yl]-ethylamino)-4-methyl-pentanoic acid] |
| < 0.1 | COC(=O)[C@H](Cc1cncn1Cc1cc(Cl)cc(Cl)c1)N[C@@H](CC(C)C)C(=O)OC [MM, 2-{2-[3-(3,5-Dichloro-benzyl)-3H-imidazol-4-yl]-1-methoxycarbonyl-ethylamino}-4-methyl-pentanoic acidmethyl ester] |
| > 0.5 | Cc1nc(C[C@H](NC(CC(C)C)C(=O)O)C(=O)O)c(Cc2ccccc2)s1 (single isomer, unassigned) [KC, 2-[2-(5-Benzyl-2-methyl-thiazol-4-yl)-1-carboxy-ethylamino]-4-methyl-pentanoic acid] |
| > 0.5 | COc1ccc2ccccc2c1Cn1cncc1C[C@H](NC(CC(C)C)C(=O)O)C(=O)O (single isomer, unassigned) [IS, 2-[1-Carboxy-2-[3-(2-methoxy-naphthalen-1-ylmethyl)-3H-imidazol-4-yl]-ethylamino]-4-methyl-pentanoic acid] |
| 0.1 to 0.5 | CC(C)C[C@H](N[C@@H](Cc1ccc(OCC2CCCCC2)cc1)C(=O)O)C(=O)O [KR, S,S-2-[1-Carboxy-2-(4-cyclohexylmethoxy-phenyl)-ethylamino]-4-methyl pentanoic acid] |
| > 0.5 | CC(C)C[C@H](N[C@@H](Cc1ccc(-c2ccsc2)o1)C(=O)O)C(=O)O [NV, (S,S)-2-[1-Carboxy-2-(5-thiophen-3-yl-furan-2-yl)-ethylamino]-4-methyl-pentanoic acid] |
| > 0.5 | CC(C)C[C@H](N[C@@H](CNC(=O)c1ccc(Cl)c(Cl)c1)C(=O)O)C(=O)O [LJ, (S,S)-2-[1-Carboxy-2-(3,4-dichloro-benzoylamino)-ethylamino]-4-methyl-pentanoic acid] |
| < 0.1 | CC(C)C[C@H](N[C@@H](Cc1cncn1Cc1cc(F)cc(F)c1)C(=O)O)C(=O)O [NJ, (S,S) 2-{1-Carboxy-2-[3-(3,5-difluoro-benzyl)-3H-imidazol-4-yl]-ethylamino}-4-methyl-pentanoic acid] |
| 0.1 to 0.5 | CCOc1ccc2nc(NC(=O)C[C@H](N[C@@H](CC(C)C)C(=O)O)C(=O)O)sc2c1 [MP, (S,S)-2-[1-Carboxy-2-(6-ethoxy-benzothiazol-2-ylcarbamoyl)-ethylamino]-4-methyl-pentanoic acid] |
| > 0.5 | CC(C)C[C@H](N[C@@H](Cc1ccc(O)cc1)C(=O)O)C(=O)O [NX, 2-[1-Carboxy-2-(4-hydroxy-phenyl)-ethylamino]-4-methyl-pentanoic acid] |
| 0.1 to 0.5 | CC(C)C[C@H](N[C@@H](Cc1ccn(-c2ccccc2)n1)C(=O)O)C(=O)O [OD, 2-[1-carboxy-2-(1phenyl-1H-pyrazol-3-yl)-ethylamino]-4-methyl-pentanoic acid] |
| 0.1 to 0.5 | COc1ccc2nc(NC(=O)C[C@H](N[C@@H](CC(C)C)C(=O)O)C(=O)O)sc2c1 [MO, (S,S)-2-[1-Carboxy-2-(6-methoxy-benzothiazol-2-ylcarbamoyl)-ethylamino]-4-methyl-pentanoic acid] |
| < 0.1 | CC(C)C[C@H](N[C@@H](Cc1ccc(-c2cc(Cl)cc(Cl)c2)cc1)C(=O)O)C(=O)O [NG, (S,S)-2-[1-Carboxy-2-(3′,5′-dichloro-biphenyl-4-yl)-ethylamino]-4-methyl-pentanoic acid] |
| > 0.5 | Cc1cc2nc(NC(=O)C[C@H](N[C@@H](CC(C)C)C(=O)O)C(=O)O)sc2cc1C [MC, (S,S)-2-[1-Carboxy-2-(5,6-dimethyl-benzothiazol-2-ylcarbamoyl)-ethylamino]-4-methyl-pentanoic acid] |
| 0.1 to 0.5 | CC(C)C[C@H](N[C@@H](CC(=O)Nc1nc2cc(Cl)c(Cl)cc2s1)C(=O)O)C(=O)O [MG, (S,S)-2-[1-Carboxy-2-(5,6-dichloro-benzothiazol-2-ylcarbamoyl)-ethylamino]-4-methyl-pentanoic acid] |
| 0.1 to 0.5 | CC(C)C[C@H](N[C@@H](Cn1ccn(CC2CCCCC2)c1=O)C(=O)O)C(=O)O [NL, 2-[1-Carboxy-2-(3-cyclohexylmethyl-2-oxo-2,3-dihydro-imidazol-1-yl)-ethylamino]-4-methyl-pentanoic acid] |
| < 0.1 | COC(=O)[C@H](Cc1cncn1Cc1cc(Cl)cc(Cl)c1)N[C@@H](CC(C)C)C(=O)O [KX, (S,S) 2-{2-[3-(3,5-Dichloro-benzyl)-3H-imidazol-4-yl]-1-methoxycarbonyl-ethylamino}-4-methyl-pentanoic acid] |
| > 0.5 | CC(C)CC(NC(CC(=O)N1CCN(C(c2ccccc2)c2ccc(Cl)cc2)CC1)C(=O)O)C(=O)O (centres unmarked) [KW, 2-(1-Carboxy-3-[4-[(4-chloro-phenyl)-phenyl-methyl]-piperazin-1-yl]-3-oxo-propylamino)-4-methyl-pentanoic acid] |
| > 0.5 | CC(C)C[C@H](N[C@@H](Cc1ccn(-c2ccccc2)n1)C(=O)OC(C)(C)C)C(=O)O [OR] |
| > 0.5 | CC(C)CC(N[C@@H](Cc1cncn1Cc1ccc(Cl)c(Cl)c1)C(=O)O)C(=O)O (single isomer, unassigned) [GX] |
| 0.1 to 0.5 | CC(C)C[C@H](N[C@@H](Cc1cccc(OCc2ccc(Cl)cc2)c1)C(=O)O)C(=O)O [OB, 2-[1-Carboxy-2-[3-(4-chloro-benzyloxy)-phenyl)-ethylamino]-4-methyl-pentanoic acid] |
| > 0.5 | CC(C)CC(N[C@@H](Cc1csc(NCc2ccccc2)n1)C(=O)O)C(=O)O (single isomer, unassigned) [HM, 2-[2-(2-Benzylamino-thiazol-4-yl)-1-carboxy-ethylamino]-4-methyl-pentanoic acid] |
| > 0.5 | COC(=O)[C@H](Cc1cncn1Cc1cc(Cl)cc(Cl)c1)N[C@H](CC(C)C)C(=O)OCc1ccccc1 [LA, 2-[2-[3-(3,5-Dichloro-benzyl)-3H-imidazol-4-yl]-1-methoxycarbonyl-ethylamino]-4-methyl-pentanoic acidbenzyl ester] |
| > 0.5 | Cc1nc(C[C@H](NC(CC(C)C)C(=O)O)C(=O)O)cs1 (single isomer, unassigned) [GY, 2-[1-Carboxy-2-(2-methyl-thiazol-4-yl)-ethylamino]-4-methyl-pentanoic acid] |

| SMILES | Ki [µM] |
| --- | --- |
| CCCCOC(=O)[C@H](Cc1cncn1Cc1cc(Cl)cc(Cl)c1)N[C@H](CC(C)C)C(=O)O [LE, 2-[1-Butoxycarbonyl-2-[3-(3,5-dichloro-benzyl)-3H-imidazol-4-yl]-ethylamino]4-methyl-pentanoic acid] | > 0.5 |

Same assay, conditions: Ki class; compounds tested in 5% DMSO, 12 concentrations; read-out: Human ACE-2 Activity

| Ki [µM] | SMILES |
| --- | --- |
| > 0.5 | NCCCC[C@@H](C(=O)O)N(CC(=O)O)CC(=O)O [K, 6-Amino-2-(bis-carboxymethyl-amino)-hexanoic acid] |
| > 0.5 | O=C(O)[C@@H]1C[C@@H](C(=O)O)N1 [A, Azetidine-2,4-dicarboxylic acid] |
| > 0.5 | C[C@@H](N[C@@H](CCCNC(=N)N)C(=O)O)C(=O)O [I, 2-(1-Carboxy-ethylamino)-5-guanidino-pentanoic acid] |

Same assay, conditions: Table 3, very good ACE-2 inhibiting compounds; species not given; read-out: ACE-2 Activity, Ki

| Ki [µM] | SMILES |
| --- | --- |
| 0.05 to 0.1 | CC(C)C[C@H](N[C@@H](Cn1ccn(Cc2cc(F)ccc2F)c1=O)C(=O)O)C(=O)O [OW, 2-[1-Carboxy-2-[3-(2,5-difluoro-benzyl)-2-oxo-2,3-dihydro-imidazol-1-yl]-ethylamino]-4-methyl-pentanoic acid] |
| 0.05 to 0.1 | CC(C)C[C@H](N[C@@H](Cc1ccc(-c2ccccn2)cc1)C(=O)O)C(=O)O [PI, (S,S)-2-[1-Carboxy-2-(4-pyridin-2-yl-phenyl)-ethylamino]-4-methyl-pentanoic acid] |
| < 0.05 | COC(=O)[C@H](Cc1cncn1Cc1cc(Cl)cc(Cl)c1)N[C@@H](CC(C)C)C(=O)OC [MM, 2-{2-[3-(3,5-Dichloro-benzyl)-3H-imidazol-4-yl]-1-methoxycarbonyl-ethylamino}-4-methyl-pentanoic acidmethyl ester] |
| < 0.05 | CC(C)C[C@H](N[C@@H](Cc1cncn1Cc1cc(F)cc(F)c1)C(=O)O)C(=O)O [NJ, (S,S) 2-{1-Carboxy-2-[3-(3,5-difluoro-benzyl)-3H-imidazol-4-yl]-ethylamino}-4-methyl-pentanoic acid] |
| < 0.05 | CC(C)C[C@H](N[C@@H](Cc1ccc(-c2cc(Cl)cc(Cl)c2)cc1)C(=O)O)C(=O)O [NG, (S,S)-2-[1-Carboxy-2-(3′,5′-dichloro-biphenyl-4-yl)-ethylamino]-4-methyl-pentanoic acid] |
| < 0.05 | COC(=O)[C@H](Cc1cncn1Cc1cc(Cl)cc(Cl)c1)N[C@@H](CC(C)C)C(=O)O [KX, (S,S) 2-{2-[3-(3,5-Dichloro-benzyl)-3H-imidazol-4-yl]-1-methoxycarbonyl-ethylamino}-4-methyl-pentanoic acid] |
